Data taken from patent US8846947B2, “Benzimidazoles and related analogs as sirtuin modulators” (GlaxoSmithKline LLC, priority 2008, dated 2014).
Where two headings read alike, the source gives them in different places.

Molecular target: T1, SIRT1 (Homo sapiens, UniProt Q96EB6)
T1 sequence (Q96EB6 1-747): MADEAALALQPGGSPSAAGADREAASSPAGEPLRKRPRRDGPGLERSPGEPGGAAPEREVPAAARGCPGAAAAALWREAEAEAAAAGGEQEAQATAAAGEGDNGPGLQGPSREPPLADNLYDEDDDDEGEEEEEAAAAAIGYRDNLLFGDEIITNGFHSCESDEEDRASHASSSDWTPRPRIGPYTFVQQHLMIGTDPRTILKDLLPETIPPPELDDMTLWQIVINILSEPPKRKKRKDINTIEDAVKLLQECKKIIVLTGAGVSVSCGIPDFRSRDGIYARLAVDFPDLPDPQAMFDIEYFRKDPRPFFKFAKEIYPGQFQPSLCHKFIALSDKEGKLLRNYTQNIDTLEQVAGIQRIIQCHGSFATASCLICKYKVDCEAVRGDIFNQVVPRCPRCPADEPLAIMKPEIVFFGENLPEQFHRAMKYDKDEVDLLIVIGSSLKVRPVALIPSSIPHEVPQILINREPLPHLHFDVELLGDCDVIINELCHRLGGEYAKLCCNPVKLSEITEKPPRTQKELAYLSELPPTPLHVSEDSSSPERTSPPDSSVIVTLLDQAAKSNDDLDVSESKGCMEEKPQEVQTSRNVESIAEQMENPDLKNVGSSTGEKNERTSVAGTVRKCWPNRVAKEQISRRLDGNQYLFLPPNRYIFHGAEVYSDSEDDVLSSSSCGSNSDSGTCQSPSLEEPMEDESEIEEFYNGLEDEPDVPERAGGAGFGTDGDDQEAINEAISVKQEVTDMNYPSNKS
Test: Mass spectrometry based SIRT1 deacetylase activation assay (acetylated p53-derived peptide substrate)
Format: biochemical

[1] = 0.5 μM peptide substrate, 120 μM βNAD+, 10 nM SIRT1, 25 min at 25° C.
[2] = 0.5 μM peptide substrate, 120 μM βNAD+, 10 nM SIRT1, 25 min at 25° C., read-out: EC1.5
[3] = 0.5 μM peptide substrate, 120 μM βNAD+, 10 nM SIRT1, 25 minutes at 25° C.

Structure (SMILES)	Fold Act. (percent maximum fold activation) [1]	EC1.5 [2] [nM]	EC1.5 [3]	Fold Act. (percent maximum fold activation) [3]	other results
O=C(Nc1nccs1)c1cccc2[nH]c(-c3cccc(CN4CCCC4)c3)nc12 [Compound 351]	–	–	–	–	EC1.5: B (EC1.5 1-25 uM); Fold Act. (percent maximum fold activation): A (Fold activation >200%)
Cc1nc(C)c(-c2nc3c(C(=O)Nc4nccs4)cccc3[nH]2)s1 [Compound 304]	–	–	–	–	EC1.5: A (EC1.5<1.0 uM); Fold Act. (percent maximum fold activation): A (Fold activation >200%)
O=C(Nc1nccs1)c1cccc2[nH]c(-c3cc(Cl)ccc3C(F)(F)F)nc12 [Compound 258]	–	–	–	–	EC1.5: B (EC1.5 1-25 uM); Fold Act. (percent maximum fold activation): A (Fold activation >200%)
Cc1cc(C)nc(NC(=O)c2cccc3[nH]c(-c4ccc(N5CCOCC5)cc4C(F)(F)F)nc23)c1 [Compound 590]	A (Fold activation >200%)	< 1000	–	–	–
O=C(Nc1nc2ccccc2s1)c1cccc2[nH]c(-c3cccc(C(F)(F)F)c3)nc12 [Compound 284]	–	–	–	–	EC1.5: B (EC1.5 1-25 uM); Fold Act. (percent maximum fold activation): A (Fold activation >200%)
O=C(Nc1nccs1)c1cccc2[nH]c(-c3ccc(F)c(C(F)(F)F)c3)nc12 [Compound 216]	–	–	–	–	EC1.5: C (EC1.5 >25 uM); Fold Act. (percent maximum fold activation): B (Fold Activation <200%)
O=C(Nc1ccccc1OCC(O)CO)c1cccc2[nH]c(-c3ccc(Cl)cc3C(F)(F)F)nc12 (stereo not shown) [Compound 726]	–	–	B (EC1.5 1-25 uM)	A (Fold activation >200%)	–
O=C(Nc1nccs1)c1cccc2[nH]c(-c3ccc(-c4ccccc4)cc3)nc12 [Compound 223]	–	–	–	–	EC1.5: C (EC1.5 >25 uM); Fold Act. (percent maximum fold activation): B (Fold Activation <200%)
O=C(Nc1cccc2[nH]c(-c3cc(F)ccc3C(F)(F)F)nc12)c1ccccn1 [Compound 385]	–	–	–	–	EC1.5: B (EC1.5 1-25 uM); Fold Act. (percent maximum fold activation): A (Fold activation >200%)
O=C(Nc1ccccn1)c1cc(F)cc2nc(-c3ccc(F)cc3C(F)F)[nH]c12 [Compound 826]	–	–	A (EC1.5<1.0 uM)	A (Fold activation >200%)	–
O=C(Nc1nccs1)c1cccc2[nH]c(-c3ccccc3-c3ccccc3)nc12 [Compound 255]	–	–	–	–	EC1.5: B (EC1.5 1-25 uM); Fold Act. (percent maximum fold activation): A (Fold activation >200%)
O=C(Nc1cccc(OC[C@H](O)CO)c1)c1cccc2[nH]c(-c3ccc(Cl)cc3C(F)F)nc12 [Compound 698]	–	–	A (EC1.5<1.0 uM)	A (Fold activation >200%)	–
O=C(Nc1ccc(OCC(O)CO)cc1)c1cccc2[nH]c(-c3cc(F)ccc3C(F)(F)F)nc12 (stereo not shown) [Compound 494]	A (Fold activation >200%)	< 1000	–	–	–
CN(C)CCNc1ccc(-c2nc3c(C(=O)Nc4nccs4)cccc3[nH]2)cn1 [Compound 259]	–	–	–	–	EC1.5: B (EC1.5 1-25 uM); Fold Act. (percent maximum fold activation): A (Fold activation >200%)
FC(F)(F)c1cccc(-c2nc3c(Nc4ccccn4)cccc3[nH]2)c1 [Compound 581, N-(pyridin-2-yl)-2-(3-(trifluoromethyl)phenyl)-1H-benzo[d]imidazol-4-amine]	B (Fold Activation <200%)	> 25000	–	–	–
O=C(Nc1cccc2[nH]c(-c3ccc(Cl)cc3C(F)(F)F)nc12)c1cscn1 [Compound 416]	B (Fold Activation <200%)	1000 to 25000	–	–	–
O=C(Nc1ccccn1)c1cc(N2CCOCC2)cc2[nH]c(-c3ccccc3C(F)(F)F)nc12 [Compound 629]	–	–	A (EC1.5<1.0 uM)	A (Fold activation >200%)	–
O=C(Nc1nccs1)c1cncc2[nH]c(-c3ccc(OC[C@H](O)CO)cc3C(F)(F)F)nc12 [Compound 761]	–	–	A (EC1.5<1.0 uM)	A (Fold activation >200%)	–
Cc1cnc(NC(=O)c2cncc3nc(-c4ccc(OC[C@H](O)CO)cc4C(F)F)[nH]c23)s1 [Compound 809]	–	–	A (EC1.5<1.0 uM)	A (Fold activation >200%)	–
O=C(Nc1ccc(OCC(O)CO)cc1)c1cccc2[nH]c(-c3ccccc3C(F)(F)F)nc12 (stereo not shown) [Compound 492]	A (Fold activation >200%)	< 1000	–	–	–
O=C(Nc1ccc(OCC(O)CO)cc1)c1cccc2[nH]c(-c3ccc(Cl)cc3C(F)(F)F)nc12 (stereo not shown) [Compound 493]	A (Fold activation >200%)	< 1000	–	–	–
Cc1cc(NC(=O)c2cccc3[nH]c(-c4ccc(Cl)cc4C(F)(F)F)nc23)no1 [Compound 452]	A (Fold activation >200%)	< 1000	–	–	–
O=C(Nc1nccs1)c1cccc2[nH]c(-c3cccc(-c4nnn[nH]4)c3)nc12 [Compound 360]	–	–	–	–	EC1.5: A (EC1.5<1.0 uM); Fold Act. (percent maximum fold activation): A (Fold activation >200%)
Cc1cnc(NC(=O)c2cncc3[nH]c(-c4ccc(F)cc4C(F)(F)F)nc23)s1 [Compound 697]	–	–	A (EC1.5<1.0 uM)	A (Fold activation >200%)	–

Second part, led by results:

Fold Act. (percent maximum fold activation) [1]	EC1.5 [2] [nM]	EC1.5 [3]	Fold Act. (percent maximum fold activation) [3]	Structure (SMILES)	other results
B (Fold Activation <200%)	1000 to 25000	–	–	CC(C)(C)c1cccc(-c2nc3c(C(=O)Nc4ccccn4)cccc3[nH]2)c1OCCN1CCOCC1 [Compound 588]	–
B (Fold Activation <200%)	1000 to 25000	–	–	CS(=O)(=O)c1ccc(-c2nc3c(C(=O)Nc4nccs4)cccc3[nH]2)cc1 [Compound 405]	–
–	–	A (EC1.5<1.0 uM)	A (Fold activation >200%)	O=C(Nc1cccc(OC[C@H](O)CO)c1)c1cccc2[nH]c(-c3cc(F)cc(F)c3)nc12 [Compound 786]	–
–	–	A (EC1.5<1.0 uM)	A (Fold activation >200%)	O=C(Nc1cccc(OC[C@H](O)CO)c1)c1cccc2[nH]c(-c3cccc(F)c3)nc12 [Compound 781]	–
A (Fold activation >200%)	< 1000	–	–	Cc1cnc(NC(=O)c2cccc3[nH]c(-c4cc(F)ccc4C(F)F)nc23)s1 [Compound 512]	–
A (Fold activation >200%)	< 1000	–	–	O=C(Nc1cccnc1)c1cccc2[nH]c(-c3cccc4c3OC(F)(F)O4)nc12 [Compound 531]	–
A (Fold activation >200%)	< 1000	–	–	Cc1cnc(NC(=O)c2cccc3[nH]c(-c4ccc(F)cc4C(F)F)nc23)s1 [Compound 560]	–
–	–	A (EC1.5<1.0 uM)	A (Fold activation >200%)	O=C(Nc1cccc(OC[C@H](O)CO)c1)c1cccc2[nH]c(-c3ccncc3)nc12 [Compound 783]	–
–	–	B (EC1.5 1-25 uM)	B (Fold Activation <200%)	c1cncc(CNc2cccc3[nH]c(-c4cccc(N5CCOCC5)c4)nc23)c1 [Compound 619]	–
–	–	A (EC1.5<1.0 uM)	A (Fold activation >200%)	O=C(Nc1nccs1)c1cc(F)cc2[nH]c(-c3ccc(OC[C@@H](O)CO)cc3C(F)F)nc12 [Compound 831]	–
–	–	B (EC1.5 1-25 uM)	B (Fold Activation <200%)	CC1(C)CN(CCOc2ccccc2-c2nc3c(C(=O)Nc4ccccn4)cccc3[nH]2)CCO1 [Compound 712]	–
